According to patent publication US11214835B1, “Methods and compositions for diagnosis and management of neurodegerative diseases” (UNIVERSITY OF SOUTH FLORIDA, priority 2017, dated 2022):

How the values were obtained:
GAS5 [1] = assay: GAS5 levels in DM adipocytes by SYBR Green qPCR; type: cell-based, human; details: 20 nM, 24 hours
Procedure: DM adipocytes were treated with G5-1397 (20 nM) for about 24 hours. GAS5 levels were measured using SYBR Green qPCR.
Depletion of GAS5 decreases glucose uptake: Adipose tissue is the primary target for insulin-mediated glucose uptake. […] To maintain reproducibility over a larger number of experiments, adipose stem cells derived from normal or diabetic patients were purchased from Zenbio (BMI 20-24, Nondiabetic HbA1C 5.9 (hereafter referred as NDM); T2DM HbA1c 8.5 (hereafter referred as DM)). The adipose stem cells (ASC) were differentiated in vitro to mature adipocytes and used in experiments. GAS5 siRNA (10 nM, Ambion 332778, validated; scrambled siRNA as control) was transfected in NDM pre-adipocytes for 48 h, differentiated to mature NDM adipocytes for 8 days and knockdown confirmed by GAS5 SYBR Green qPCR. We determined the effect of GAS5 depletion on glucose uptake by NDM adipocytes. Cells were serum starved, 10 nM insulin was added to cells for 30 minutes and [^3H]-deoxy-2-D-Glucose uptake was measured. Results indicated a decrease in glucose uptake in GAS5 depleted NDM adipocytes ***p<0.001, highly significant using two-tailed students t-test.
Compound NPG5-C86 can increase GAS5 levels in diabetic adipocytes: Next, it was evaluated whether NPG5-C86 could stabilize GAS5 in diabetic adipocytes. […] GAS5 levels were measured using SYBR Green qPCR.

DM adipocytes = assay: Cell viability / toxicity in DM adipocytes; type: cell-based, human; details: 20 nM, 24 hours
HT22 cells = assay: Toxicity of side-chain derivatives to HT22 cells (preliminary data)
GAS5 [2] = assay: Uptake and GAS5 levels in primary neuronal cells (NC) by qPCR; type: cell-based, mouse; details: 10 nM
NEAT1, MALAT1 = assay: Levels of other lncRNAs in neurons by qPCR (specificity); type: cell-based, mouse
GAS5 [3] = assay: Binding of side-chain derivatives to GAS5 (preliminary data)
GAS5 [4] = assay: Hippocampal GAS5 levels after intranasal administration to C57BL/6 mice; type: in vivo, mouse; details: 10 nM in 10 μl, about 48 h
From the text: Separately, NPG567 or other compounds can be administered by intranasal delivery (APP/PS1 beginning at either 6 months of age (preventive) or 12 months of age (therapeutic); dose repeated alternate days; Tg4510 beginning at either 3 months of age (preventive) or 8 months of age (therapeutic); alternate days. See FIG. 25B for a schematic of the experimental protocol. The treatment efficacy for the two modes of delivery at timeframes as shown in FIGS. 25A and 25B and described herein. Intranasal delivery is a noninvasive method that bypasses the blood-brain barrier and delivers the drug to the brain and the spinal cord, thereby avoiding any systemic side effects. […] Brain tissue was harvested after about 48 h.

Compound | GAS5 levels in DM adipocytes (GAS5 [1]) | cell toxicity in DM adipocytes (DM adipocytes) | toxicity to HT22 cells (HT22 cells) | uptake by NC (GAS5 [2]; primary neuronal cells) | GAS5 levels in NC (GAS5 [2]; qPCR, control set as reference) | levels of other lncRNAs NEAT1, MALAT1 present in neurons (NEAT1, MALAT1; 10 nM, NC) | specificity (NEAT1, MALAT1; in neurons) | binding to GAS5 (GAS5 [3]) | GAS5 levels in the hippocampus (GAS5 [4])
CC(C)C[C@H]1CN(C(=O)CC2CC2)CC(=O)N[C@@H](CCCCN)CN(C(=O)CCc2ccccc2)CC(=O)N[C@@H](Cc2ccccc2)CN(CC(N)=O)C(=O)CCSCc2ccc(cc2)C(=O)N[C@@H](Cc2ccccc2)CN(C(=O)CC2CC2)CC(=O)N1 [Formula G5-1397] | substantially increases GAS5 levels | without causing cell toxicity |  |  |  |  |  |  | 
NCCCC[C@H]1CN(C(=O)CCc2ccccc2)CC(=O)N[C@@H](CCC(=O)O)CN(CC(N)=O)C(=O)CCSCc2ccc(cc2)C(=O)N[C@@H](CCC(=O)O)CN(C(=O)CCC(=O)O)CC(=O)N[C@@H](CCCCN)CN(C(=O)CCCN)CC(=O)N1 [NPG567] |  |  | not toxic to HT22 cells | efficiently taken up by NC | increase GAS5 | did not affect | shows specificity | bound efficiently to GAS5 | increased GAS5 levels in the hippocampus
